Where two headings read alike, the source gives them in different places.
Assays:
[1] = test system: Haemophilus influenzae Holt; assay: standard agar-dilution assay, MIC; assay type: cell-based; conditions: ampicillin sensitive strain
Experimental: (§1) The MIC's in Table III were determined by standard agar-dilutionassays. The MIC's in Table IV were obtained using a conventional broth-dilution microtiter test.
^d Ampicillinsensitive strain

[2] = test system: Staphylococcus aureus X400; assay: standard agar-dilution assay, MIC; assay type: cell-based; conditions: Staphylococcus aureus X400, methicillin resistant strain
Experimental: as §1
^c Methicillinresistant-strain

[3] = test system: Mycoplasma hyorhinis; assay: conventional broth-dilution microtiter test, MIC; assay type: cell-based
Experimental: as §1

[4] = test system: Staphylococcus aureus; assay: conventional broth-dilution microtiter test, MIC; assay type: cell-based
Experimental: as §1

[5] = test system: Streptococcus sp. 80; assay: conventional broth-dilution microtiter test, MIC; assay type: cell-based
Experimental: as §1

[6] = test system: Mycoplasma synoviae; assay: conventional broth-dilution microtiter test, MIC; assay type: cell-based
Experimental: as §1

[7] = test system: Pasteurella multocida 60A; assay: conventional broth-dilution microtiter test, MIC; assay type: cell-based; conditions: avian isolate
Experimental: as §1

[8] = test system: Mycoplasma gallisepticum; assay: conventional broth-dilution microtiter test, MIC; assay type: cell-based
Experimental: as §1

[9] = test system: Pasteurella multocida 17E; assay: conventional broth-dilution microtiter test, MIC; assay type: cell-based; conditions: bovine isolate
Experimental: as §1

[10] = test system: Streptococcus pneumoniae Park I; assay: standard agar-dilution assay, MIC; assay type: cell-based
Experimental: as §1

[11] = test system: Streptococcus Group 9960; assay: standard agar-dilution assay, MIC; assay type: cell-based
Experimental: as §1

[12] = test system: Streptococcus pyogenes C203; assay: standard agar-dilution assay, MIC; assay type: cell-based
Experimental: as §1

[13] = test system: Staphylococcus epidermidis EPI2; assay: standard agar-dilution assay, MIC; assay type: cell-based
Experimental: as §1

[14] = test system: Streptococcus Group D X66; assay: standard agar-dilution assay, MIC; assay type: cell-based
Experimental: as §1

[15] = test system: Staphylococcus aureus X1.1; assay: standard agar-dilution assay, MIC; assay type: cell-based
Experimental: as §1

[16] = test system: Staphylococcus epidermidis EPI1; assay: standard agar-dilution assay, MIC; assay type: cell-based
Experimental: as §1

[17] = test system: Staphylococcus aureus S13E; assay: standard agar-dilution assay, MIC; assay type: cell-based
Experimental: as §1

[18] = test system: Staphylococcus aureus V41; assay: standard agar-dilution assay, MIC; assay type: cell-based; conditions: Staphylococcus aureus V41, penicillin resistant strain
Experimental: as §1
^b Penicillinresistant strain

[19] = test system: Haemophilus influenzae R252; assay: standard agar-dilution assay, MIC; assay type: cell-based; conditions: Haemophilus influenzae R252, ampicillin resistant strain
Experimental: as §1
^e Ampicillinresistant strain

[20] = test system: Streptococcus pyogenes C203; assay: experimental bacterial infection in mice, ED50; assay type: in vivo; conditions: doses given 1 and 5 hours postinfection, read-out: ED50 (effective dose to protect 50% of the test animals)
Experimental: The ester derivatives of this invention have shown in vivo antimicrobial activity against experimental bacterial infections caused by gram-positivebacteria. When two doses of test compound were administered to mice with experimental infections, the activity observed was measured as an ED50 value [effective dose in mg/kg to protect 50% of the test animals: see Warren Wick, et al., J. Bacteriol. 81, 233-235 (1961)].
^a mg/kg × 2; doses given 1 and 5 hours postinfection

CCC(=O)OC1C(C)OC(OC2C(C)OC(OC3C(CC=O)CC(C)C(=O)C=CC(C)=CC(COC(=O)C(Cl)(Cl)Cl)C(CC)OC(=O)CC(O)C3C)C(OC(C)=O)C2N(C)C)CC1(C)O (stereo not drawn) [Compound 14, 2'-O-Acetyl-4"-O-Propionyl-23-O-Trichloroacetyl-DMT]
MIC (minimal inhibitory concentration) [1]: 8 | MIC (minimal inhibitory concentration) [2]: 2 | MIC (minimal inhibitory concentration) [3]: 6.25 | MIC (minimal inhibitory concentration) [4]: 1.56 | MIC (minimal inhibitory concentration) [5]: 1.56 | MIC (minimal inhibitory concentration) [6]: 0.195 | MIC (minimal inhibitory concentration) [7]: 25 | MIC (minimal inhibitory concentration) [8]: 0.39 | MIC (minimal inhibitory concentration) [9]: 12.5 | MIC (minimal inhibitory concentration) [10]: 0.125 | MIC (minimal inhibitory concentration) [11]: 1 | MIC (minimal inhibitory concentration) [12]: 0.5 | MIC (minimal inhibitory concentration) [13]: 2 | MIC (minimal inhibitory concentration) [14]: 2 | MIC (minimal inhibitory concentration) [15]: 0.5 | MIC (minimal inhibitory concentration) [16]: 0.5 | MIC (minimal inhibitory concentration) [17]: 1 | MIC (minimal inhibitory concentration) [18]: 1 | MIC (minimal inhibitory concentration) [19]: 8

CCC(=O)OC1C(C)OC(OC2C(C)OC(OC3C(CC=O)CC(C)C(=O)C=CC(C)=CC(CO)C(CC)OC(=O)CC(O)C3C)C(O)C2N(C)C)CC1(C)O (stereo not drawn) [Compound 16, 4"-O-Propionyl-DMT]
MIC (minimal inhibitory concentration) [1]: 4 | MIC (minimal inhibitory concentration) [2]: 1 | MIC (minimal inhibitory concentration) [10]: 0.06 | MIC (minimal inhibitory concentration) [11]: 0.5 | MIC (minimal inhibitory concentration) [12]: 0.125 | MIC (minimal inhibitory concentration) [13]: 1 | MIC (minimal inhibitory concentration) [14]: 0.5 | MIC (minimal inhibitory concentration) [15]: 0.5 | MIC (minimal inhibitory concentration) [16]: 0.5 | MIC (minimal inhibitory concentration) [17]: 0.5 | MIC (minimal inhibitory concentration) [18]: 0.5 | MIC (minimal inhibitory concentration) [19]: 2

CCC1OC(=O)CC(O)C(C)C(OC2OC(C)C(OC3CC(C)(O)C(OC(=O)CC(C)C)C(C)O3)C(N(C)C)C2OC(C)=O)C(CC=O)CC(C)C(=O)C=CC(C)=CC1C (stereo not drawn) [Compound 18, 2'-O-Acetyl-4"-O-Isovaleryl-DMOT]
MIC (minimal inhibitory concentration) [1]: 32 | MIC (minimal inhibitory concentration) [2]: 1 | MIC (minimal inhibitory concentration) [3]: 0.78 | MIC (minimal inhibitory concentration) [4]: 0.78 | MIC (minimal inhibitory concentration) [5]: 0.39 | MIC (minimal inhibitory concentration) [7]: > 50 | MIC (minimal inhibitory concentration) [8]: 0.39 | MIC (minimal inhibitory concentration) [9]: 12.5 | MIC (minimal inhibitory concentration) [10]: 0.06 | MIC (minimal inhibitory concentration) [11]: 1 | MIC (minimal inhibitory concentration) [12]: 0.5 | MIC (minimal inhibitory concentration) [13]: 2 | MIC (minimal inhibitory concentration) [14]: 1 | MIC (minimal inhibitory concentration) [15]: 1 | MIC (minimal inhibitory concentration) [16]: 1 | MIC (minimal inhibitory concentration) [17]: 1 | MIC (minimal inhibitory concentration) [18]: 1 | MIC (minimal inhibitory concentration) [19]: 32

CCC(=O)OC1C(C)OC(OC2C(C)OC(OC3C(CC=O)CC(C)C(=O)C=CC(C)=CC(C)C(CC)OC(=O)CC(O)C3C)C(OC(C)=O)C2N(C)C)CC1(C)O (stereo not drawn) [Compound 22, 2'-O-Acetyl-4"-O-Propionyl-DMOT]
MIC (minimal inhibitory concentration) [2]: 0.5 | MIC (minimal inhibitory concentration) [3]: 1.56 | MIC (minimal inhibitory concentration) [4]: 3.12 | MIC (minimal inhibitory concentration) [5]: 1.56 | MIC (minimal inhibitory concentration) [6]: 0.78 | MIC (minimal inhibitory concentration) [7]: 25 | MIC (minimal inhibitory concentration) [8]: 0.195 | MIC (minimal inhibitory concentration) [9]: 25 | ED50 ([20]; C203, mice, oral): 91 mg/kg | ED50 ([20]; C203, sc, mice, subcutaneous): > 30 mg/kg | MIC (minimal inhibitory concentration) [10]: 0.125 | MIC (minimal inhibitory concentration) [11]: 0.5 | MIC (minimal inhibitory concentration) [12]: 0.25 | MIC (minimal inhibitory concentration) [13]: 1 | MIC (minimal inhibitory concentration) [14]: 0.5 | MIC (minimal inhibitory concentration) [15]: 0.25 | MIC (minimal inhibitory concentration) [16]: 0.5 | MIC (minimal inhibitory concentration) [17]: 0.5 | MIC (minimal inhibitory concentration) [18]: 0.5

CCC(=O)OC1CC(=O)OC(CC)C(C)C=C(C)C=CC(=O)C(C)CC(CC=O)C(OC2OC(C)C(OC3CC(C)(O)C(OC(=O)CC)C(C)O3)C(N(C)C)C2OC(C)=O)C1C (stereo not drawn) [Compound 23, 2'-O-Acetyl-3,4"-Di-O-Propionyl-DMOT]
MIC (minimal inhibitory concentration) [2]: 1 | MIC (minimal inhibitory concentration) [3]: 1.56 | MIC (minimal inhibitory concentration) [4]: 1.56 | MIC (minimal inhibitory concentration) [5]: 1.56 | MIC (minimal inhibitory concentration) [6]: 3.12 | MIC (minimal inhibitory concentration) [7]: > 50 | MIC (minimal inhibitory concentration) [8]: 0.39 | MIC (minimal inhibitory concentration) [9]: 50 | ED50 ([20]; C203, mice, oral): > 100 mg/kg | ED50 ([20]; C203, sc, mice, subcutaneous): > 30 mg/kg | MIC (minimal inhibitory concentration) [10]: 0.06 | MIC (minimal inhibitory concentration) [11]: 1 | MIC (minimal inhibitory concentration) [12]: 0.5 | MIC (minimal inhibitory concentration) [13]: 1 | MIC (minimal inhibitory concentration) [14]: 1 | MIC (minimal inhibitory concentration) [15]: 0.5 | MIC (minimal inhibitory concentration) [16]: 0.5 | MIC (minimal inhibitory concentration) [17]: 0.5 | MIC (minimal inhibitory concentration) [18]: 1
